From US5691348A, “Pyridyl imidazole derivatives and processes for the preparation thereof” (Daewoo Electronics Co., Ltd., priority 1994, dated 1997)

What was measured:
[1] = system: renal hypertensive rats; assay: Duration of action in renal hypertensive rats; format: in vivo, Sprague-Dawley rat; settings: 3 mg/kg oral
Text: To induce renal hypertension, left renal artery of 4 week-old male Sprague-Dawley rat (from The Korea Research Institute of Chemical Technology) was ligated. The rat was anesthetized with ether and the surgical region on the left abdomen of the rat was shaved, disinfected, and then incised about 1 cm vertically. The renal artery near abdominal aorta was isolated carefully from surrounding tissues and veins, and then ligated completely with a suture (4/0 sterile surgical silk). The muscular strata and skin of the surgical area were sutured with a suture (4/0 sterile surgical silk). The surgical region was disinfected to prevent infection and thereafter, 200 to 250 mg/kg/day of cephazolin sodium was injected intramuscularly for 2 days. 6 to 8 days after the ligation, rats showing systolic pressure of more than 180 mmHg were selected for renal hypertension test. The blood pressure was determined by a tail-cuff method from the tail under unanesthetized condition (Gerold, M. et al., Arzneimittel-Forsch., 18, 1285(1968)).
Each of the compounds to be tested was administered intravenously or orally into the renal hypertensive rat. The blood pressure of the rat was determined by direct method (Chiu, A. T. et al., J. Pharmacol. Exp. Ther., 250, 867(1989)) using a catheter. The rat was anesthetized with ketamine hydrochloride (125 mg/kg, i.p.) and a catheter was filled with saline and inserted into a carotid artery and […]. The surgical area was sutured with a metal clip. The rat was relaxed at least 3 hours and the catheter in the carotid artery was adapted to an isotec pressure transducer to determine the blood pressure and heart rate with a physiograph (Linearcorder WR3310). After the blood pressure was stabilized, the test compound was administered intravenously or orally. For intravenous administration, the administered volume and washing volume were 1.0 ml/kg and 0.2 ml, respectively. The blood pressure and heart rate were measured in regular intervals up to 24 hours after the administration of the test compound and compared with those measured after the administration of the control compound Losartan.
The test compound was dissolved in 0.05N KOH for intravenous administration and suspended in Tween 80 for oral administration.
The compound of Example 1 and the Merck compound were tested using the hypertensive rats of test 2(i). 3 mg/kg of each compound was administered orally and blood pressure lowering effect with time was determined to measure the duration of action of the compounds.

[2] = system: furosemide-administered dogs; assay: Duration of action in furosemide-administered dogs; format: in vivo, dog; settings: 0.3 mg oral
Procedure: A number of dog was fed freely in a feeding room and those weighing 7 to 12 kg in good health were selected regardless of their gender.
The test dog was anesthetized with 30 mg/kg of pentobarbital sodium by intravenous injection and the left femoral artery and femoral vein were separated carefully. Silicone catheter, specially prepared and filled with saline treated with heparin (1,000 IU/ml), was cannulated into the blood vessels. After the surgery, the dog was constrained to measure the blood pressure continuously with Gould 2000 physiograph adapted to a Grass P23XL pressure transducer; and the heart rate was monitored with ECG/Biotacho amplifier. The dog was tested at least 2 days after the surgery.
10 mg/kg of furosemide was injected intramuscularly 18 hours (in case of intravenous injection, 2 hours) before the beginning of the test (administration of the test compound) to improve the activity of renin in blood plasma. After the injection of furosemide, neither food nor water was provided. […] The blood pressure and heart rate were measured up to 8 hours after the administration of each test compound.
The compound of Example 1 and the Merck compound were administered orally to the furosemide-administrated dogs as in test 3(i), and blood pressure lowering effect was measured with time.

## CCCCc1nc2cc(-c3cccc[n+]3[O-])c(CO)nc2n1Cc1ccc(-c2ccccc2-c2nn[nH]n2)cc1 [Example 1, 2-Butyl-5-hydroxymethyl-6-(1-oxy-pyridin-2-yl)-3-[2'-(1H-tetrazol-5-yl)-biphenyl-4-ylmethyl]-3H-imidazo[4,5-b]pyridine]
[1]; 0 min
  Maximum Blood Pressure Lowering Effect: 0%
[1]; 10 min
  Maximum Blood Pressure Lowering Effect: -11%
[1]; 20 min
  Maximum Blood Pressure Lowering Effect: -19%
[1]; 30 min
  Maximum Blood Pressure Lowering Effect: -32%
[1]; 60 min
  Maximum Blood Pressure Lowering Effect: -48%
[1]; 90 min
  Maximum Blood Pressure Lowering Effect: -42%
[1]; 120 min
  Maximum Blood Pressure Lowering Effect: -44%
[1]; 240 min
  Maximum Blood Pressure Lowering Effect: -58%
[1]; 360 min
  Maximum Blood Pressure Lowering Effect: -60%
[1]; 1320 min
  Maximum Blood Pressure Lowering Effect: -48%
[1]; 1440 min
  Maximum Blood Pressure Lowering Effect: -49%
[1]; renal hypertensive rats
  duration of action compared with the Merck compound: far longer duration of action than the Merck compound
[2]; 0 min
  Maximum Blood Pressure Lowering Effect: 0.0%
[2]; 10 min
  Maximum Blood Pressure Lowering Effect: 2.2%
[2]; 20 min
  Maximum Blood Pressure Lowering Effect: -1.1%
[2]; 30 min
  Maximum Blood Pressure Lowering Effect: -5.9%
[2]; 60 min
  Maximum Blood Pressure Lowering Effect: -11.4%
[2]; 90 min
  Maximum Blood Pressure Lowering Effect: -12.9%
[2]; 120 min
  Maximum Blood Pressure Lowering Effect: -14.8%
[2]; 150 min
  Maximum Blood Pressure Lowering Effect: -16.1%
[2]; 180 min
  Maximum Blood Pressure Lowering Effect: -16.7%
[2]; 210 min
  Maximum Blood Pressure Lowering Effect: -17.4%
[2]; 240 min
  Maximum Blood Pressure Lowering Effect: -18.2%
[2]; 270 min
  Maximum Blood Pressure Lowering Effect: -17.0%
[2]; 300 min
  Maximum Blood Pressure Lowering Effect: -20.5%
[2]; 330 min
  Maximum Blood Pressure Lowering Effect: -20.7%
[2]; 360 min
  Maximum Blood Pressure Lowering Effect: -20.4%
[2]; 390 min
  Maximum Blood Pressure Lowering Effect: -20.1%
[2]; 420 min
  Maximum Blood Pressure Lowering Effect: -20.5%
[2]; 450 min
  Maximum Blood Pressure Lowering Effect: -20.5%
[2]; 480 min
  Maximum Blood Pressure Lowering Effect: -20.0%
[2]; Table 6, dogs
  time for which the maximum blood pressure lowering effect lasted after the administration: up to 8 hours
